Measured values as given in US20240308991A1, “PROCESS FOR THE SYNTHESIS OF REACTIVE CAR[…] ANTIGEN […] C[…] A CARRIER MATERIAL” (KORANEX CAPITAL, priority 2021, published 2024).

Compound `C=CCO[C@H]1O[C@H](CO)[C@H](O)[C@H](O[C@@H]2O[C@H](CO)[C@H](O)[C@H](O)[C@H]2O)[C@H]1NC(C)=O` has a melting point of 230 to 232 °C.
